Experimental data: PMC8841437 (Clinical and Translational Science, 2021)

Experiments:
[1] = system: activated partial thromboplastin time (aPTT); experiment: Activated partial thromboplastin time; assay type: in vivo, human
[2] = Urinary excretion of milvexian; assay type: in vivo, human
Single ascending dose = assay type: in vivo, human; conditions: for increase in bioavailability by food intake: fed vs fasted; for AUC: AUC(0‐T); for AUC / Cmax: n = 6, geometric mean (geometric CV%); for Cmax: fed (high-fat breakfast)
Multiple ascending dose = conditions: for Tmax: median (min-max)
[3] = system: arterial and venous thrombosis; conditions: preclinical models of arterial and venous thrombosis; cited from earlier work
healthy participants = experiment: Safety and tolerability; assay type: in vivo, human
prothrombin time = experiment: Prothrombin time, ex vivo pharmacodynamics; assay type: in vivo, human; conditions: SAD and MAD panels; data not shown
[4] = MAD panel 7, 5 mg q.d. fasted, n = 6
[5] = MAD panel 8, 20 mg q.d. fasted, n = 6
[6] = MAD panel 9, 70 mg q.d. fasted, n = 6
[7] = MAD panel 10, 200 mg q.d. fasted, n = 6
[8] = MAD panel 11, 500 mg q.d. fed, n = 6
[9] = MAD panel 12, 35 mg b.i.d. fasted, n = 6
[10] = MAD panel 13, 200 mg b.i.d. fasted, n = 6
[11] = MAD, all participants treated with milvexian, N = 42
[12] = all SAD and MAD dosing regimens

## C[C@@H]1CCC[C@H](n2cnc(-c3cc(Cl)ccc3-n3cc(Cl)nn3)cc2=O)c2cc(ccn2)-c2c(cnn2C(F)F)NC1=O [milvexian]
[1]; fasted SAD panel 4 mg
  maximal mean percent increase from baseline in aPTT: 11.9%
[1]; fasted SAD panel 20 mg
  maximal mean percent increase from baseline in aPTT: 36.7%
[1]; fasted SAD panel 60 mg
  maximal mean percent increase from baseline in aPTT: 85.2%
[1]; fasted SAD panel 200 mg
  maximal mean percent increase from baseline in aPTT: 147.1%
[1]; fasted SAD panel 300 mg
  maximal mean percent increase from baseline in aPTT: 140.8%
[1]; fasted SAD panel 500 mg
  maximal mean percent increase from baseline in aPTT: 188.3%
[2]; MAD panel 9, 70 mg q.d., day 1
  mean total amount excreted in urine from 0 to 24 h postdose: 14.8 % of the administered dose
[2]; MAD panel 9, 70 mg q.d., day 14
  mean total amount excreted in urine from 0 to 24 h postdose: 17.3 % of the administered dose
[2]; MAD panel 10, 200 mg q.d., day 1
  mean total amount excreted in urine from 0 to 24 h postdose: 10.4 % of the administered dose
[2]; MAD panel 10, 200 mg q.d., day 14
  mean total amount excreted in urine from 0 to 24 h postdose: 14.1 % of the administered dose
[2]; all panels
  Renal excretion: less than 20%
Single ascending dose; SAD 200-mg panel
  increase in bioavailability by food intake: ~ 1.4 fold
Single ascending dose; SAD 500-mg panel
  increase in bioavailability by food intake: ~ 2 fold
Single ascending dose; SAD panels 4 and 6, fed vs fasted
  mean T1/2 shortened when administered with food: 1.5 h
Single ascending dose; SAD, fasted, 20 to 200 mg
  dose proportionality of Cmax and exposure: generally dose‐proportional
Single ascending dose; human, plasma, oral, 4 mg, SAD panel 1, 4 mg, fasted
  AUC: 125 ng·h/mL
Single ascending dose; human, plasma, oral, 20 mg, SAD panel 2, 20 mg, fasted
  AUC: 1220 ng·h/mL
Single ascending dose; human, plasma, oral, 60 mg, SAD panel 3, 60 mg, fasted
  AUC: 3790 ng·h/mL
Single ascending dose; human, plasma, oral, 200 mg, SAD panel 4, 200 mg, fasted
  AUC: 12500 ng·h/mL
Single ascending dose; human, plasma, oral, 200 mg, SAD panel 4, 200 mg, fed
  AUC: 17800 ng·h/mL
Single ascending dose; human, plasma, oral, 200 mg, SAD panel 4, 200 mg
  Cmax: 1640 ng/mL
Single ascending dose; human, plasma, oral, 300 mg, SAD panel 5, 300 mg, fasted
  AUC: 14600 ng·h/mL
Single ascending dose; human, plasma, oral, 500 mg, SAD panel 6, 500 mg, fasted
  AUC: 21000 ng·h/mL
Single ascending dose; human, plasma, oral, 500 mg, SAD panel 6, 500 mg, fed
  AUC: 44300 ng·h/mL
Single ascending dose; human, plasma, oral, 500 mg, SAD panel 6, 500 mg
  Cmax: 3360 ng/mL
Single ascending dose; human, plasma, oral, T1/2, range across all SAD panels, SAD, 4-500 mg
  half-life: 8.3 to 13.8 h
Single ascending dose; human, plasma, oral, Tmax, summary in discussion, rapid absorption
  Tmax: 2 to 4 h
Multiple ascending dose; MAD 5-mg q.d. panel, visual inspection of trough concentrations
  time to steady-state plasma concentration: 1 dosing day
Multiple ascending dose; MAD day 14, 5-500 mg
  dose proportionality of increases in exposure: greater than dose‐proportional
Multiple ascending dose; MAD, once-daily dosing
  time to steady-state plasma concentration: ≤ 3 dosing days
Multiple ascending dose; human, in vivo, 5 mg, AUC(0‐T), MAD panel 7, 5 mg q.d. fasted, day 14, n = 5, geometric mean (geometric CV%)
  AUC: 146 ng·h/mL
Multiple ascending dose; human, in vivo, 5 mg, AUC(TAU), MAD panel 7, 5 mg q.d. fasted, day 14, n = 5, geometric mean (geometric CV%)
  AUC: 146 ng·h/mL
Multiple ascending dose; human, in vivo, 5 mg, Cmax, MAD panel 7, 5 mg q.d. fasted, day 14, n = 5, geometric mean (geometric CV%)
  Cmax at 14 days: 14.8 ng/mL
Multiple ascending dose; human, in vivo, 5 mg, MAD panel 7, 5 mg q.d. fasted, day 14, n = 5
  Tmax: 2.03 h
Multiple ascending dose; human, in vivo, 20 mg, AUC(0‐T), MAD panel 8, 20 mg q.d. fasted, day 14, n = 6, geometric mean (geometric CV%)
  AUC: 1660 ng·h/mL
Multiple ascending dose; human, in vivo, 20 mg, AUC(TAU), MAD panel 8, 20 mg q.d. fasted, day 14, n = 6, geometric mean (geometric CV%)
  AUC: 1370 ng·h/mL
Multiple ascending dose; human, in vivo, 20 mg, Cmax, MAD panel 8, 20 mg q.d. fasted, day 14, n = 6, geometric mean (geometric CV%)
  Cmax at 14 days: 171 ng/mL
Multiple ascending dose; human, in vivo, 20 mg, MAD panel 8, 20 mg q.d. fasted, day 14, n = 6
  Tmax: 2.5 h
Multiple ascending dose; human, in vivo, 70 mg, AUC(TAU), MAD panel 9, 70 mg q.d. fasted, day 14, n = 5, geometric mean (geometric CV%)
  AUC: 4220 ng·h/mL
Multiple ascending dose; human, in vivo, 70 mg, Cmax, MAD panel 9, 70 mg q.d. fasted, day 14, n = 5, geometric mean (geometric CV%)
  Cmax at 14 days: 434 ng/mL
Multiple ascending dose; human, in vivo, 70 mg, MAD panel 9, 70 mg q.d. fasted, day 14, n = 5
  Tmax: 3 h
Multiple ascending dose; human, in vivo, 200 mg, AUC(0‐T), MAD panel 10, 200 mg q.d. fasted, day 14, n = 6, geometric mean (geometric CV%)
  AUC: 18900 ng·h/mL
Multiple ascending dose; human, in vivo, 200 mg, AUC(TAU), MAD panel 10, 200 mg q.d. fasted, day 14, n = 6, geometric mean (geometric CV%)
  AUC: 14600 ng·h/mL
Multiple ascending dose; human, in vivo, 200 mg, Cmax, MAD panel 10, 200 mg q.d. fasted, day 14, n = 6, geometric mean (geometric CV%)
  Cmax at 14 days: 1510 ng/mL
Multiple ascending dose; human, in vivo, 200 mg, MAD panel 10, 200 mg q.d. fasted, day 14, n = 6
  Tmax: 3.5 h
Multiple ascending dose; human, in vivo, 500 mg, AUC(0‐T), MAD panel 11, 500 mg q.d. fed, day 14, n = 6, geometric mean (geometric CV%)
  AUC: 142000 ng·h/mL
Multiple ascending dose; human, in vivo, 500 mg, AUC(TAU), MAD panel 11, 500 mg q.d. fed, day 14, n = 6, geometric mean (geometric CV%)
  AUC: 95100 ng·h/mL
Multiple ascending dose; human, in vivo, 500 mg, Cmax, MAD panel 11, 500 mg q.d. fed, day 14, n = 6, geometric mean (geometric CV%)
  Cmax: 7600 ng/mL
Multiple ascending dose; human, in vivo, 500 mg, MAD panel 11, 500 mg q.d. fed, day 14, n = 6
  Tmax: 4 h
Multiple ascending dose; human, in vivo, mean T1/2, range across MAD panels, MAD
  half-life: 11.4 to 18.1 h
[3]
  antithrombotic activity: antithrombotic activity while preserving homeostasis
Healthy participants; MAD 5-mg q.d. group
  epistaxis: one participant
Healthy participants; MAD 5-mg q.d. group, considered treatment-related, mild
  gingival bleeding: one participant
Healthy participants; MAD 70-mg q.d. group, considered treatment-related, mild
  petechia: one participant
Healthy participants; [4]
  Abdominal discomfort (TEAE): 1 (16.7) n (%)
  Abdominal pain (TEAE): 0 n (%)
  Any TEAE: 4 (66.7) n (%)
  Diarrhea (TEAE): 1 (16.7) n (%)
  Dizziness (TEAE): 0 n (%)
  Headache (TEAE): 2 (33.3) n (%)
  Nausea (TEAE): 0 n (%)
  Oropharyngeal pain (TEAE): 0 n (%)
  Pain in extremity (TEAE): 0 n (%)
Healthy participants; MAD panel 7, after one dose of 5 mg
  discontinuation of treatment because of an AE (macular rash): one participant
Healthy participants; [5]
  Abdominal discomfort (TEAE): 0 n (%)
  Abdominal pain (TEAE): 0 n (%)
  Any TEAE: 1 (16.7) n (%)
  Diarrhea (TEAE): 0 n (%)
  Dizziness (TEAE): 0 n (%)
  Headache (TEAE): 1 (16.7) n (%)
  Nausea (TEAE): 0 n (%)
  Oropharyngeal pain (TEAE): 0 n (%)
  Pain in extremity (TEAE): 0 n (%)
Healthy participants; [6]
  Abdominal discomfort (TEAE): 1 (16.7) n (%)
  Abdominal pain (TEAE): 1 (16.7) n (%)
  Any TEAE: 5 (83.3) n (%)
  Diarrhea (TEAE): 3 (50.0) n (%)
  Dizziness (TEAE): 1 (16.7) n (%)
  Headache (TEAE): 2 (33.3) n (%)
  Nausea (TEAE): 1 (16.7) n (%)
  Oropharyngeal pain (TEAE): 0 n (%)
  Pain in extremity (TEAE): 1 (16.7) n (%)
Healthy participants; [7]
  Abdominal discomfort (TEAE): 0 n (%)
  Abdominal pain (TEAE): 1 (16.7) n (%)
  Any TEAE: 4 (66.7) n (%)
  Diarrhea (TEAE): 1 (16.7) n (%)
  Dizziness (TEAE): 0 n (%)
  Headache (TEAE): 1 (16.7) n (%)
  Nausea (TEAE): 2 (33.3) n (%)
  Oropharyngeal pain (TEAE): 1 (16.7) n (%)
  Pain in extremity (TEAE): 1 (16.7) n (%)
Healthy participants; [8]
  Abdominal discomfort (TEAE): 0 n (%)
  Abdominal pain (TEAE): 0 n (%)
  Any TEAE: 3 (50.0) n (%)
  Diarrhea (TEAE): 0 n (%)
  Dizziness (TEAE): 0 n (%)
  Headache (TEAE): 0 n (%)
  Nausea (TEAE): 0 n (%)
  Oropharyngeal pain (TEAE): 0 n (%)
  Pain in extremity (TEAE): 0 n (%)
Healthy participants; [9]
  Abdominal discomfort (TEAE): 0 n (%)
  Abdominal pain (TEAE): 0 n (%)
  Any TEAE: 2 (33.3) n (%)
  Diarrhea (TEAE): 0 n (%)
  Dizziness (TEAE): 1 (16.7) n (%)
  Headache (TEAE): 0 n (%)
  Nausea (TEAE): 0 n (%)
  Oropharyngeal pain (TEAE): 0 n (%)
  Pain in extremity (TEAE): 0 n (%)
Healthy participants; [10]
  Abdominal discomfort (TEAE): 0 n (%)
  Abdominal pain (TEAE): 0 n (%)
  Any TEAE: 2 (33.3) n (%)
  Diarrhea (TEAE): 0 n (%)
  Dizziness (TEAE): 1 (16.7) n (%)
  Headache (TEAE): 0 n (%)
  Nausea (TEAE): 0 n (%)
  Oropharyngeal pain (TEAE): 1 (16.7) n (%)
  Pain in extremity (TEAE): 0 n (%)
Healthy participants; MAD panels, milvexian
  Diarrhea (TEAE): 11.9%
  Headache (TEAE): 14.3%
Healthy participants; MAD panels, participants who received milvexian (21 participants)
  participants reporting TEAEs: 50.0%
Healthy participants; [11]
  Abdominal discomfort (TEAE): 2 (4.8) n (%)
  Abdominal pain (TEAE): 2 (4.8) n (%)
  Any TEAE: 21 (50.0) n (%)
  Diarrhea (TEAE): 5 (11.9) n (%)
  Dizziness (TEAE): 3 (7.1) n (%)
  Headache (TEAE): 6 (14.3) n (%)
  Nausea (TEAE): 3 (7.1) n (%)
  Oropharyngeal pain (TEAE): 2 (4.8) n (%)
  Pain in extremity (TEAE): 2 (4.8) n (%)
Healthy participants; SAD and MAD
  ECG abnormalities: no clinically significant ECG abnormalities
  incidence of laboratory and vital sign abnormalities vs placebo: no relevant differences
Healthy participants; SAD panels, fasted participants who received milvexian (three participants)
  participants reporting TEAEs: 8.3%
Healthy participants; SAD up to 500 mg, MAD up to 200 mg b.i.d. or 500 mg q.d.
  deaths or other SAEs: No deaths or other SAEs occurred
Healthy participants; SAD, 300 mg, fasted
  Headache (TEAE): 2 n
Healthy participants; SAD, 500-mg group, fed (one participant)
  nausea (TEAE) after a high-fat breakfast: 16.7%
Healthy participants; [12]
  clinically significant bleeding events: no clinically significant bleeding events
  severity of TEAEs: mild
Healthy participants; same participant, 35-mg b.i.d. group, within normal limits
  platelet count at next sampling time 2 days later: 1.84e+11 L⁻¹
Prothrombin time
  Prothrombin time: not increased at any time
